Reference: ChEMBL document CHEMBL1128630, “Alkoxy substituted benzisothiazolone (BIT) derivatives: potent inhibitors of human leukocyte elastase” (Bioorg Med Chem Lett, 1995)

Assay: Half life measured in vitro for its stability in human blood
Type: ADME, tissue-based

half-life [min]	Compound
10	CCOc1cccc2c1C(=O)N(COC(=O)c1c(Cl)cccc1Cl)S2(=O)=O
98	CCOc1cc(OCC)c2c(c1)S(=O)(=O)N(COC(=O)c1c(Cl)cccc1Cl)C2=O
30	COc1cc(OC)c2c(c1)S(=O)(=O)N(COC(=O)c1c(Cl)cccc1Cl)C2=O
5	COc1ccc2c(c1)S(=O)(=O)N(COC(=O)c1c(Cl)cccc1Cl)C2=O
